“Also recorded” adds a separate entry of the source. Marks after values point to notes of the source that are not given here.
Columns and labels:
[1] = system: fungal test inoculum: Aspergillus niger, Penicillium funiculosum, Candida albicans; test: Fungal challenge test (ASTM D2574-97, modified) in standard water based interior paint; format: cell-based; design: key to Streak plate rank, 2nd inoculation 72 h / Streak plate rank, 1st inoculation 72 h / Streak plate rank, 1st inoculation 24 h / Streak plate rank, 2nd inoculation 24 h / Streak plate rank, 3rd inoculation 24 h: 0 = no growth; 1 = 1-5 Colony Forming Unit (cfu); 2 = 6-15 cfu; 3 = 16-30 cfu; 4 = 31-45 cfu; 5 = greater than 45 cfu; 5c = Confluent Growth; conditions: for Dilution plate count, 3rd inoculation 72 h / Streak plate rank, 3rd inoculation 24 h: inoculum 0.50%; for Streak plate rank, 1st inoculation 24 h / Streak plate rank, 1st inoculation 72 h: inoculum 2%
Procedure: (§1) The following bacterial and fungal challenge tests were performed to ascertain whether low concentrations of 4-isothiazolin-3-one biocidal active compounds, pyrithione, coumarin or guanidine adjuvant are sufficient to prevent microbial contamination of final products when deliberately inoculated with spoilage microbes.
(§2) The tests were performed according to ASTM standard D2574-97 (Standard Test Method for Resistance of Emulsion Paints in the Container to Attack by Microorganisms, ASTM International, West Conshohocken, Pa.), with higher inoculation volumes and frequency. A standard water based interior paint was used as the test substrate. Sample sizes of 20 g test substrate were used and the test samples were prepared in a sterile 30 mL square Nalgene bottle.
Fungal lawns were grown on Potato Dextrose Agar (PDA) or Sabouraud Dextrose Agar (SAB). Individual fungal spore suspensions were harvested by adding 10 mL of sterile 0.05% Triton X to fungal lawns. The lawns were then gently agitated by rubbing a sterile swab on the lawn, being careful not to puncture the agar. The liquid was then aseptically transferred to a sterile bottle containing sterile glass beads. The top of the bottle was closed and the bottle shaken vigorously to break up any chunks in the suspension. The shaken spore suspension was decanted through sterile fibers into another sterile bottle. The decanted spore suspension was counted using a hemocytometer. Once the spore counts were determined, each suspension was diluted in order to obtain 10^6 spore/mL. Each diluted fungal suspension was poured into a sterile container.
(§3) The following microorganisms were used for inoculation of the tested samples:
For the bacterial challenge testing, each sample was inoculated with a combined bacterial test inoculum volume equivalent to 10% of the total initial sample volume for the initial inoculation, 5% of the total initial sample volume for the second inoculation and 2.5% of the total initial sample volume for the third inoculation. […] Samples were inoculated every 96 h.
(§4) Concentrations of biocidal active compounds and adjuvants refer to the final concentration in the test samples prior to the first inoculation.
(§5) The efficacy of the added agent in each sample was monitored by means of a streak plate test after 24 hours (all inoculations) and 72 hours of inoculation (first and second inoculation). At 72 hours of the third inoculation performed, a dilution plate count was performed in order to obtain a quantitative measurement of contamination (cfu/mL). A count of less than 10 colony forming units per mL ([…]) is considered to show no measurable contamination. For the streak plate tests, bacterial samples were streaked on Tryptic Soy Agar (TSA) and incubated for 48 hours at 30° C. before reading. Fungal samples were streaked on Potato Dextrose Agar (PDA) and incubated for 5 days at 25° C. before reading.
(§6) The streak plates were ranked from 0-5c according to the degree of microbial growth:
(§7) The challenge tests were performed as described above.

[2] = system: bacterial test inoculum (Acinetobacter calcoaceticus, Escherichia coli, Pseudomonas aeruginosa, Enterobacter cloacae); test: Quick kill testing in pre-contaminated standard interior paint (dilution-plate counts); format: cell-based; conditions: for Dilution-plate count T4 / Dilution-plate count T8 / Dilution-plate count T24: Table 9, 30° C.; for Dilution-plate count T4: 4 hours after treatment; for Dilution-plate count T8: 8 hours after treatment; for Dilution-plate count T24: 24 hours after treatment
Procedure: An additional test was performed to analyze how quickly the tested biocidal compositions will recover a sample from microbial spoilage. For each sample, 20 g of a pre-contaminated standard interior paint formulation serving as a test substrate was weighed into a sterile container. All samples were contaminated with the bacterial test inoculum described above (10% of the of the total initial sample volume).
A dilution-plate count was performed on the untreated sample (0 hour time point) and a biocidal composition added aseptically to each sample. Subsequent to this treatment, further dilution-plate counts were performed at fixed time intervals (time points are given in hours) on each sample, including an untreated negative control. All samples were incubated at 30° C.±2° C.
Concentrations in ppm refer to final concentrations of the biocidal compositions in the test samples. The relative amounts of active compounds and adjuvant in the tested biocidal compositions were as indicated below: […]

[3] = system: combined bacterial test inoculum: Acinetobacter calcoaceticus, Escherichia coli, Pseudomonas aeruginosa, Enterobacter cloacae; test: Bacterial challenge test (ASTM D2574-97, modified) in standard water based interior paint; format: cell-based; design: key to Streak plate rank, 1st inoculation 24 h / Streak plate rank, 1st inoculation 72 h / Streak plate rank, 2nd inoculation 72 h / Streak plate rank, 3rd inoculation 24 h: 0 = no growth; 1 = 1-5 Colony Forming Unit (cfu); 2 = 6-15 cfu; 3 = 16-30 cfu; 4 = 31-45 cfu; 5 = greater than 45 cfu; 5c = Confluent Growth; conditions: for Dilution plate count, 3rd inoculation 72 h / Streak plate rank, 3rd inoculation 24 h: inoculum 2.50%; for Streak plate rank, 2nd inoculation 72 h: inoculum 5%; for Streak plate rank, 1st inoculation 24 h / Streak plate rank, 1st inoculation 72 h: inoculum 10%
Procedure: as §1, §2
The bacteria were grown on pH 5, 7, or 9 Trypticase Soy Agar (TSA) lawns. The bacteria were grown individually on TSA and harvested by using sterile buffered water. The bacterial lawns were washed off with 30 mL of sterile water and an equal volume of each individual cell suspension was withdrawn from each serum bottle to make a combined cell suspension. Combined bacterial suspension were about 10^7 cfu/mL, which provides about 10^6 cfu/mL in the sample.
as §3
For the bacterial challenge testing, each sample was inoculated with a combined bacterial test inoculum volume equivalent to 10% of the total initial sample volume for the initial inoculation, 5% of the total initial sample volume for the second inoculation and 2.5% of the total initial sample volume for the third inoculation. Inoculum volumes for the fungal challenge tests were 2%, 1% and 0.5% of the total initial sample volume, respectively. Samples were inoculated every 96 h.
as §4, §5, §6, §7

[4] = system: bacteria, fungi and yeast; conditions: cited from earlier work
[5] = neutral pH; cited from earlier work

Molecule: O=c1[nH]sc2ccccc12 [BIT, 1,2-benzisothiazolin-3-one]
- Dilution plate count, 3rd inoculation 72 h ([1]; 50 ppm): 2.0 × 10^2 cfu/mL
- Streak plate rank, 3rd inoculation 24 h ([1]; 50 ppm): 5 (5 = greater than 45 cfu)
- Streak plate rank, 2nd inoculation 72 h ([1]; 50 ppm, inoculum 1%): 1 (1 = 1-5 Colony Forming Unit (cfu))
- Streak plate rank, 1st inoculation 24 h ([1]; 50 ppm): 5 (5 = greater than 45 cfu)
- Streak plate rank, 1st inoculation 72 h ([1]; 50 ppm): 2 (2 = 6-15 cfu)
- Dilution-plate count T4 ([2]; 50 ppm): 1.15 × 10^7
- Dilution-plate count T8 ([2]; 50 ppm): 3.4 × 10^6
- Dilution-plate count T24 ([2]; 50 ppm): 9.4 × 10^5
- Dilution plate count, 3rd inoculation 72 h ([3]; 50 ppm): 4.2 × 10^7 cfu/mL
- Streak plate rank, 3rd inoculation 24 h ([3]; 50 ppm): 5 (5 = greater than 45 cfu)
- Streak plate rank, 2nd inoculation 72 h ([3]; 50 ppm): 5 (5 = greater than 45 cfu)
- Streak plate rank, 1st inoculation 24 h ([3]; 50 ppm): 5 (5 = greater than 45 cfu)
- Streak plate rank, 1st inoculation 72 h ([3]; 50 ppm): 4 (4 = 31-45 cfu)
- amounts required for a reliable and quick biocidal activity [4]: up to 500 ppm

Molecule: CN(C)C(=N)N(C)C [TMG, 1,1,3,3-tetramethylguanidine]
- Dilution plate count, 3rd inoculation 72 h ([1]; 750 ppm): <10 cfu/mL
- Streak plate rank, 3rd inoculation 24 h ([1]; 750 ppm): 3 (3 = 16-30 cfu)
- Streak plate rank, 1st inoculation 24 h ([1]; 750 ppm): 4 (4 = 31-45 cfu)
- Streak plate rank, 1st inoculation 72 h ([1]; 750 ppm): 0
- Streak plate rank, 2nd inoculation 72 h ([1]; 750 ppm, inoculum added was 2%): 1** (1 = 1-5 Colony Forming Unit (cfu))
- Dilution plate count, 3rd inoculation 72 h ([1]; 1000 ppm): <10 cfu/mL
- Streak plate rank, 3rd inoculation 24 h ([1]; 1000 ppm): 3 (3 = 16-30 cfu)
- Streak plate rank, 1st inoculation 24 h ([1]; 1000 ppm): 4 (4 = 31-45 cfu)
- Streak plate rank, 1st inoculation 72 h ([1]; 1000 ppm): 0
- Streak plate rank, 2nd inoculation 72 h ([1]; 1000 ppm, inoculum added was 2%): 0**
- Dilution plate count, 3rd inoculation 72 h ([1]; 1250 ppm): <10 cfu/mL
- Streak plate rank, 3rd inoculation 24 h ([1]; 1250 ppm): 3 (3 = 16-30 cfu)
- Streak plate rank, 1st inoculation 24 h ([1]; 1250 ppm): 2 (2 = 6-15 cfu)
- Streak plate rank, 1st inoculation 72 h ([1]; 1250 ppm): 0
- Streak plate rank, 2nd inoculation 72 h ([1]; 1250 ppm, inoculum added was 2%): 0**
- Dilution plate count, 3rd inoculation 72 h ([1]; 1500 ppm): <10 cfu/mL
- Streak plate rank, 3rd inoculation 24 h ([1]; 1500 ppm): 3 (3 = 16-30 cfu)
- Streak plate rank, 1st inoculation 24 h ([1]; 1500 ppm): 2 (2 = 6-15 cfu)
- Streak plate rank, 1st inoculation 72 h ([1]; 1500 ppm): 0
- Streak plate rank, 2nd inoculation 72 h ([1]; 1500 ppm, inoculum added was 2%): 0**
- effect of guanidine on fungicidal activity of 4-isothiazolin-3-ones (in words) ([1]; in combination with BIT and BBIT, Tables 4 and 6): enhancing effect; also recorded: significantly improved
- Dilution-plate count T4 ([2]; 940 ppm): 1.19 × 10^7
- Dilution-plate count T8 ([2]; 940 ppm): 1.02 × 10^7
- Dilution-plate count T24 ([2]; 940 ppm): 4.0 × 10^6
- quick kill performance (in words) ([2]; Tables 8 and 9): markedly accelerated the recovery
- Dilution plate count, 3rd inoculation 72 h ([3]; 750 ppm): 1.7 × 10^5 cfu/mL
- Streak plate rank, 3rd inoculation 24 h ([3]; 750 ppm): 5c
- Streak plate rank, 2nd inoculation 72 h ([3]; 750 ppm): 5c
- Streak plate rank, 1st inoculation 24 h ([3]; 750 ppm): 5 (5 = greater than 45 cfu)
- Streak plate rank, 1st inoculation 72 h ([3]; 750 ppm): 5c
- Dilution plate count, 3rd inoculation 72 h ([3]; 1000 ppm): 2.1 × 10^6 cfu/mL
- Streak plate rank, 3rd inoculation 24 h ([3]; 1000 ppm): 5c
- Streak plate rank, 2nd inoculation 72 h ([3]; 1000 ppm): 5c
- Streak plate rank, 1st inoculation 24 h ([3]; 1000 ppm): 5 (5 = greater than 45 cfu)
- Streak plate rank, 1st inoculation 72 h ([3]; 1000 ppm): 5 (5 = greater than 45 cfu)
- Dilution plate count, 3rd inoculation 72 h ([3]; 1250 ppm): 6.6 × 10^6 cfu/mL
- Streak plate rank, 3rd inoculation 24 h ([3]; 1250 ppm): 5c
- Streak plate rank, 2nd inoculation 72 h ([3]; 1250 ppm): 5c
- Streak plate rank, 1st inoculation 24 h ([3]; 1250 ppm): 0
- Streak plate rank, 1st inoculation 72 h ([3]; 1250 ppm): 0
- Dilution plate count, 3rd inoculation 72 h ([3]; 1500 ppm): <10 cfu/mL
- Streak plate rank, 3rd inoculation 24 h ([3]; 1500 ppm): 3 (3 = 16-30 cfu)
- Streak plate rank, 2nd inoculation 72 h ([3]; 1500 ppm): 0
- Streak plate rank, 1st inoculation 24 h ([3]; 1500 ppm): 0
- Streak plate rank, 1st inoculation 72 h ([3]; 1500 ppm): 0
- effect of guanidine on bactericidal activity of 4-isothiazolin-3-ones (in words) ([3]; in combination with BIT and BBIT, Tables 3 and 5): significantly improved

Molecule: Zinc pyrithione
- solubility in water [5]: 8 ppm
